Measurements: patent US20200085812A1, “HEAT SHOCK PROTEIN INDUCERS AND FRONTOTEMPORAL DISORDERS” (Orphazyme A/S, priority 2017, published 2020)

Tests used:
[1] = test system: HSP70; test: HSP70 immunostaining of brain and spinal cord of mVCP mice; type: in vivo, mouse
Description: (§1) Arimoclomol treatment: Male mutant VCP (mVCP) mice were treated with Arimoclomol (120 mg/kg daily; orally in drinking water), from the start of symptom onset at 4 months, until close to end-stage at 14 months. Transgenic mice over-expressing wild-type human VCP (wt-VCP) were used as controls, and 10 male mice per group were studied; a sample size sufficient to test for statistical significance at P<0.05 in a single sex group.
(§2) Brain and spinal cords were harvested from mice in all experimental groups following transcardial perfusion with saline followed by 4% paraformaldehyde (PFA). Brain and spinal cords were then kept in 4% PFA for 12 hours before being transferred to a 30% sucrose solution. Cross-sections of brain and spinal cords were cut at 20 μm and blocked in 10% Normal Goat serum with 0.1% Triton X100 in PBS before primary antibodies were added for 1 hour at room temperature. Primary antibodies: Rabbit anti-TDP-43 [1:500], Rabbit anti-ubiquitin [1:500], mouse anti-phospho tau (AT8) [1:100], Rabbit/mouse anti-Beta-3 tubulin [1:100], mouse anti-HSP70 [1:100], Mouse anti-p62 [1:200], Rabbit anti-LC3 [1:500]Rabbit anti-Iba1 [1:100], anti neurofilament 2H3 [1:20], Synaptic vesicle protein [1:20], Fluoromyelin Red myelin stain [1:300]. Fluorescently labelled or biotinylated secondary antibodies were used 1:1000 for 2 hours at room temperature. 4′6-Diamidino-2-Phenylindole, Dihydrochloride (DAPI) was used to counterstain for nuclei in all fluorescent images. Imaging of tissue was using a standard Leica light/fluorescent microscope or a LSM 780 confocal microscope.
(§3) Fluorescent images were visualised under a Leica fluorescent microscope and analysed using Leica Application Suite software (Leica Microsystems, Germany).

[2] = test system: mutant VCP (mVCP) mice; test: TUNEL assay for apoptotic cells in brain; type: in vivo, mouse; conditions: 120 mg/kg daily orally, 4 to 14 months, FIG. 9
Description: as §1
Apoptosis in the brain was assessed by Terminal deoxynucleotidyl transferase (TdT) dUTP Nick-End Labeling (TUNEL) assay for apoptotic cells, where nuclei containing double-stranded breaks in the DNA fluoresce green (Fluoroscein-tagged), indicating DNA degradation at the later stage of apoptosis (FIG. 9). In some mVCP mice, TUNEL-positive nuclei in small areas of layer I in the cortex were detected which were not seen in control animals, indicating brain cells undergoing apoptosis.

[3] = test system: iPSC-derived motor neurons from mVCP patients; test: TDP-43 immunostaining of mVCP patient iPSC-derived motor neurons; type: cell-based, human; conditions: 10 μM for 24 hours, FIG. 12 A
Description: (§4) iPSCs were maintained on Geltrex (Life Technologies) with Essential 8 Medium media (Life Technologies), and passaged using EDTA (Life Technologies, 0.5 mM). All cell cultures were maintained at 37° C. and 5% carbon dioxide. Motor neuron (MN) differentiation was carried out using a previously published protocol (Hall et al., 2017). Briefly, iPSCs were first differentiated to neuroepithelium by plating to 100% confluency in chemically defined medium consisting of DMEM/F12 Glutamax, Neurobasal, LGlutamine, N2 supplement, non-essential amino acids, B27 supplement, […] (all from Life Technologies) and insulin (Sigma). Treatment with small molecules from day 0-7 was as follows: 1 μM Dorsomorphin (Sigma), 2 μM SB431542 (Sigma), and 3 μM CHIR99021 (Sigma). At day 8, the neuroepithelial layer was enzymatically dissociated using dispase (GIBCO, 1 mg/ml), plated onto Geltrex coated plates and next patterned for 7 days with 0.5 μM retinoic acid and 1 μM Purmorphamine. At day 14 spinal cord MN precursors were treated with 0.1 μM Purmorphamine for a further 4 days before being terminally differentiated in 0.1 μM Compound E (Sigma) to promote cell cycle exit. Cells were treated with 10 μM Arimoclomol for 24 hours following terminal differentiation and fixed in PFA for immuno-labelling.

[4] = test system: mutant VCP (mVCP) mice; test: Immunohistochemistry of brain and spinal cord for pathology markers (TDP-43, ubiquitin, p-tau, p62, LC3, myelin, stress granule markers); type: in vivo, mouse; conditions: 120 mg/kg daily orally, 4 to 14 months
Description: as §1, §2, §3

[5] = test system: mutant VCP (mVCP) mice; test: Motor neuron counts and area measurements, sciatic pool of spinal cord; type: in vivo, mouse; conditions: 120 mg/kg daily orally, 4 to 14 months, FIG. 2
Description: as §1
20 μm spinal cord sections from L3-L6 were stained with gallocyanin to visualise neurons for quantification (5 mice per group). […] 20 images of the sciatic pool regions of the spinal cord were taken per animal to measure the size distribution of motor neurons present in this area (at ×20 magnification). A minimum of 3 mice per experimental group were assessed. The soma area of motor neurons was determined by drawing around individual Nissl stained (gallocyanin) motor neuron cell bodies in cross-sectional images of L4-L5 region of the spinal cord. This was recorded using Leica Application Suite V3.8 analysis software and presented as a percentage of the total number of motor neurons per group.

[6] = test system: mutant VCP (mVCP) mice; conditions: cited from earlier work
[7] = test system: HSP70; test: HSP70 immunostaining of mVCP patient iPSC-derived motor neurons; type: cell-based, human; conditions: 10 μM for 24 hours, FIG. 12 B
Description: as §4

[8] = test system: HSP70; conditions: treated versus untreated mVCP mice; cited from earlier work
[9] = test system: mutant VCP (mVCP) mice; test: In vivo physiology of EDL muscle: motor unit counts and maximal tetanic force; design: species or system mouse; conditions: 4 to 14 months, FIG. 1
Description: as §1
In vivo physiology was carried out acutely at 14 months of age on terminally anaesthetized mice to quantify the number of motor units in the extensor digitorum longus (EDL) muscle in the hindlimb of mice in all experimental groups. Briefly, Isometric contractions were elicited by stimulating the Extensor Digitorum Longus (EDL) motor nerve using pulses of 0.02 ms duration and supramaximal intensity via electrodes. Contractions were elicited by stimulation of the sciatic nerve. The number of motor units in the EDL muscles was determined by stimulating the motor nerve with stimuli of increasing intensity, resulting in stepwise increments in twitch tension because of successive recruitment of motor axons.

[10] = mVCP mice treated with Arimoclomol, previously published study

[O-][n+]1cccc(/C(Cl)=N/OC[C@H](O)CN2CCCCC2)c1 [Arimoclomol, N-[2-hydroxy-3-(1-piperidinyl)-propoxy]-pyridine-1-oxide-3-carboximidoyl chloride]
fluorescence intensity of HSP70 immunoreactivity in spinal cord (quantification) ([1]; mVCP mice treated versus untreated, FIG. 8 B): enhanced | HSP70 expression in glial cells of spinal cord and brain ([1]; mVCP mice, 120 mg/kg daily orally, 4 to 14 months): increased expression of HSP70 | HSP70 expression in brain and spinal cord ([1]; mVCP mice, 120 mg/kg daily orally, 4 to 14 months, versus untreated mVCP, FIGS. 7 and 8): further augmented | TUNEL-positive apoptotic cells in brain cortex [2]: prevented the appearance of apoptotic cells | cytoplasmic mislocalisation of TDP-43 [3]: ameliorated | accumulation of p62 in spinal cord ([4]; FIG. 5): significantly ameliorated | myelin abnormalities in spinal cord ([4]; FIG. 5): significantly ameliorated | increased LC3 expression in spinal cord ([4]; FIG. 5 D): significantly ameliorated | phosphorylated tau-positive (p-tau) extracellular aggregates/lesions in brain ([4]; FIG. 6): prevents the formation of these proteinaceous aggregates | TDP-43 cytoplasmic mislocalisation in brain and spinal cord ([4]; FIGS. 3 and 4): TDP-43 mislocalisation was reduced | ubiquitin-positive intracellular aggregates in brain and spinal cord ([4]; FIGS. 5 and 6): prevents the formation of these proteinaceous aggregates | motor neuron survival in sciatic pool (L3-6) of spinal cord [5]: reduction in motor neuron survival is prevented | shift towards smaller motor neuron soma size [5]: This shift is not seen | maximal tetanic force of EDL muscle ([6]; 14 month old mVCP mice, versus wt-VCP controls, previously published study): prevented this reduction in muscle force | myofibre atrophy and degeneration [6, 10]: reduced myofibre atrophy and degeneration | protein aggregation and TDP-43 mislocalisation in skeletal muscle [6, 10]: decreased protein aggregation and TDP-43 mislocalisation | decline in grip strength relative to body weight ([6]; mVCP mice, 4 to 14 months of age, untreated mVCP 44.1% reduction): no significant decline in grip strength | HSP70 expression [7]: substantially increased | expression of HSP70 in muscle (Western blot) [8]: two-fold | number of motor units in EDL muscle (motor unit survival) ([9]; 120 mg/kg daily orally in drinking water): reduction in motor unit survival is prevented | muscle force generated by the EDL muscle ([9]; 120 mg/kg daily orally, versus untreated mice): significantly greater than in untreated mice
